According to PubChem BioAssay (NCI):
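Here, GI50 denotes the concentration required for 50% inhibition of growth. At the TGI there is no net growth.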

Legend:
Assay in all cases: inhibition of tumour cell growth, NCI panel, 384-well format
[1] = test system: MDA-MB-435 melanoma
[2] = test system: RPMI-8226 leukemia
[3] = test system: ACHN renal
[4] = test system: IGROV1 ovarian
[5] = test system: NCI-H226 lung
[6] = test system: SF-295 CNS
[7] = test system: HCT-15 colon
[8] = test system: SNB-19 CNS
[9] = test system: KM12 colon
[10] = test system: UO-31 renal
[11] = test system: HOP-92 NSCLC
[12] = test system: M14 melanoma
[13] = test system: SK-MEL-5 melanoma
[14] = test system: PC-3 prostate
[15] = test system: EKVX NSCLC
[16] = test system: UACC-257 melanoma
[17] = test system: SNB-75 CNS
[18] = test system: OVCAR-5 ovarian
[19] = test system: MALME-3M melanoma
[20] = test system: NCI-H23 lung
[21] = test system: COLO 205 colon
[22] = test system: OVCAR-4 ovarian
[23] = test system: NCI-H460 NSCLC
[24] = test system: SK-MEL-28 melanoma
[25] = test system: NCI-H522 lung
[26] = test system: LOX IMVI melanoma
[27] = test system: HOP-62 NSCLC
[28] = test system: UACC-62 melanoma
[29] = test system: TK-10 renal
[30] = test system: MDA-MB-231 breast
[31] = test system: NCI/ADR-RES ovarian
[32] = test system: OVCAR-3 ovarian
[33] = test system: K-562 leukemia
[34] = test system: 786-0 renal
[35] = test system: A549 NSCLC
[36] = test system: HCC-2998 colon
[37] = test system: OVCAR-8 ovarian
[38] = test system: DU-145 prostate
[39] = test system: HCT-116 colon
[40] = test system: HL-60(TB) leukemia
[41] = test system: T-47D breast
[42] = test system: MOLT-4 leukemia
[43] = test system: A498 renal
[44] = test system: SN12C renal
[45] = test system: CCRF-CEM leukemia
[46] = test system: RXF 393 renal
[47] = test system: MCF7 breast
[48] = test system: SK-OV-3 ovarian
[49] = test system: HT29 colon
[50] = test system: BT-549 breast
[51] = test system: CAKI-1 renal
[52] = test system: HS 578T breast
[53] = test system: NCI-H322M lung

COc1cc(S(C)(=O)=O)ccc1Nc1nc2ccc(-c3ccc(NC(=O)[C@H](C)c4ccc(F)cc4)cc3)cn2n1
GI50 [1]: > 100 µM
TGI [1]: > 100 µM
GI50 [2]: 0.137 µM
TGI [2]: > 100 µM
GI50 [3]: > 100 µM
TGI [3]: > 100 µM
GI50 [4]: > 100 µM
TGI [4]: > 100 µM
GI50 [5]: > 100 µM
TGI [5]: > 100 µM
GI50 [6]: > 100 µM
TGI [6]: > 100 µM
GI50 [7]: 0.0587 µM
TGI [7]: > 100 µM
GI50 [8]: > 100 µM
TGI [8]: > 100 µM
GI50 [9]: 61.7 µM
TGI [9]: > 100 µM
GI50 [10]: 22.4 µM
TGI [10]: > 100 µM
GI50 [11]: 42.1 µM
TGI [11]: > 100 µM
GI50 [12]: > 100 µM
TGI [12]: > 100 µM
GI50 [13]: 1.54 µM
TGI [13]: > 100 µM
GI50 [14]: 69 µM
TGI [14]: > 100 µM
GI50 [15]: > 100 µM
TGI [15]: > 100 µM
GI50 [16]: > 100 µM
TGI [16]: > 100 µM
GI50 [17]: 75.9 µM
TGI [17]: > 100 µM
GI50 [18]: > 100 µM
TGI [18]: > 100 µM
GI50 [19]: 58.2 µM
TGI [19]: > 100 µM
GI50 [20]: > 100 µM
TGI [20]: > 100 µM
GI50 [21]: 0.0428 µM
TGI [21]: > 100 µM
GI50 [22]: > 100 µM
TGI [22]: > 100 µM
GI50 [23]: 0.0406 µM
TGI [23]: > 100 µM
GI50 [24]: > 100 µM
TGI [24]: > 100 µM
GI50 [25]: > 100 µM
TGI [25]: > 100 µM
GI50 [26]: 0.053 µM
TGI [26]: > 100 µM
GI50 [27]: 0.0771 µM
TGI [27]: > 100 µM
GI50 [28]: > 100 µM
TGI [28]: > 100 µM
GI50 [29]: > 100 µM
TGI [29]: > 100 µM
GI50 [30]: > 100 µM
TGI [30]: > 100 µM
GI50 [31]: 1.4 µM
TGI [31]: > 100 µM
GI50 [32]: > 100 µM
TGI [32]: > 100 µM
GI50 [33]: 0.777 µM
TGI [33]: > 100 µM
GI50 [34]: 1.73 µM
TGI [34]: > 100 µM
GI50 [35]: 0.0517 µM
TGI [35]: > 100 µM
GI50 [36]: > 100 µM
TGI [36]: > 100 µM
GI50 [37]: 1.19 µM
TGI [37]: > 100 µM
GI50 [38]: 5.41 µM
TGI [38]: > 100 µM
GI50 [39]: 0.0642 µM
TGI [39]: > 100 µM
GI50 [40]: 0.0454 µM
TGI [40]: > 100 µM
GI50 [41]: 4.78 µM
TGI [41]: > 100 µM
GI50 [42]: 0.0201 µM
TGI [42]: 0.0417 µM
GI50 [43]: > 100 µM
TGI [43]: > 100 µM
GI50 [44]: > 100 µM
TGI [44]: > 100 µM
GI50 [45]: 0.0293 µM
TGI [45]: 0.0694 µM
GI50 [46]: 0.0742 µM
TGI [46]: 6.48 µM
GI50 [47]: 4.61 µM
TGI [47]: > 100 µM
GI50 [48]: > 100 µM
TGI [48]: > 100 µM
GI50 [49]: 0.602 µM
TGI [49]: > 100 µM
GI50 [50]: 32.5 µM
TGI [50]: > 100 µM
GI50 [51]: > 100 µM
TGI [51]: > 100 µM
GI50 [52]: 17.4 µM
TGI [52]: > 100 µM
GI50 [53]: > 100 µM
TGI [53]: > 100 µM
